Key:
[1] = target: Muscle, skeletal receptor tyrosine-protein kinase (Homo sapiens) (UniProt O15146); assay: MuSK(h) Millipore kinase panel; conditions: Compound concentration 10.0 uM
[2] = sst (non-selective) CEREP panel; conditions: Compound concentration 1.0 uM
[3] = target: Serine/threonine-protein kinase WNK2 (Homo sapiens) (UniProt Q9Y3S1); assay: WNK2(h) Millipore kinase panel; conditions: Compound concentration 10.0 uM
[4] = target: Interleukin-1 receptor-associated kinase 4 (Homo sapiens) (UniProt Q9NWZ3); assay: IRAK4(h) Millipore kinase panel; conditions: Compound concentration 10.0 uM
[5] = target: Ephrin type-A receptor 1 (Homo sapiens) (UniProt P21709); assay: EphA1(h) Millipore kinase panel; conditions: Compound concentration 10.0 uM
[6] = target: Dual specificity protein kinase CLK3 (Homo sapiens) (UniProt P49761); assay: CLK3(h) Millipore kinase panel; conditions: Compound concentration 10.0 uM
[7] = target: Kappa-type opioid receptor (Homo sapiens) (UniProt P41145); assay: kappa (h) CEREP panel; conditions: Compound concentration 1.0 uM
[8] = target: Serine/threonine-protein kinase 33 (Homo sapiens) (UniProt Q9BYT3); assay: STK33(h) Millipore kinase panel; conditions: Compound concentration 10.0 uM
[9] = target: Neurotensin receptor type 1 (Homo sapiens) (UniProt P30989); assay: NT1 (h) (NTS1) CEREP panel; conditions: Compound concentration 1.0 uM
[10] = target: RAF proto-oncogene serine/threonine-protein kinase (Homo sapiens) (UniProt P04049); assay: c-RAF(h) Millipore kinase panel; conditions: Compound concentration 10.0 uM
[11] = target: Angiopoietin-1 receptor (Homo sapiens) (UniProt Q02763); assay: Tie2(h) Millipore kinase panel; conditions: Compound concentration 10.0 uM
[12] = target: RAC-alpha serine/threonine-protein kinase (Homo sapiens) (UniProt P31749); assay: PKBα(h) Millipore kinase panel; conditions: Compound concentration 10.0 uM
[13] = target: C-C chemokine receptor type 1 (Homo sapiens) (UniProt P32246); assay: CCR1 (h) CEREP panel; conditions: Compound concentration 1.0 uM
[14] = target: Serine/threonine-protein kinase D2 (Homo sapiens) (UniProt Q9BZL6); assay: PKD2(h) Millipore kinase panel; conditions: Compound concentration 10.0 uM
[15] = species: Homo sapiens; assay: CK2(h) Millipore kinase panel; conditions: Compound concentration 10.0 uM
[16] = target: ALK tyrosine kinase receptor (Homo sapiens) (UniProt Q9UM73); assay: ALK(h) Millipore kinase panel; conditions: Compound concentration 10.0 uM
[17] = target: Interleukin-1 receptor-associated kinase 1 (Homo sapiens) (UniProt P51617); assay: IRAK1(h) Millipore kinase panel; conditions: Compound concentration 10.0 uM
[18] = target: Sodium-dependent dopamine transporter (Homo sapiens) (UniProt Q01959); assay: DA transporter (h) CEREP panel; conditions: Compound concentration 1.0 uM
[19] = target: Protein kinase C alpha type (Homo sapiens) (UniProt P17252); assay: PKCα(h) Millipore kinase panel; conditions: Compound concentration 10.0 uM
[20] = target: Substance-K receptor (Homo sapiens) (UniProt P21452); assay: NK2 (h) CEREP panel; conditions: Compound concentration 1.0 uM
[21] = target: Serine/threonine-protein kinase VRK2 (Homo sapiens) (UniProt Q86Y07); assay: VRK2(h) Millipore kinase panel; conditions: Compound concentration 10.0 uM
[22] = target: Cyclin-dependent kinase 2 (Homo sapiens) (UniProt P24941); assay: CDK2/cyclinA(h) Millipore kinase panel; conditions: Compound concentration 10.0 uM
[23] = target: 5-hydroxytryptamine receptor 6 (Homo sapiens) (UniProt P50406); assay: 5-HT6 (h) (5-ht6) CEREP panel; conditions: Compound concentration 1.0 uM
[24] = target: Focal adhesion kinase 1 (Homo sapiens) (UniProt Q05397); assay: FAK(h) Millipore kinase panel; conditions: Compound concentration 10.0 uM
[25] = target: Glycogen synthase kinase-3 beta (Homo sapiens) (UniProt P49841); assay: GSK3β(h) Millipore kinase panel; conditions: Compound concentration 10.0 uM
[26] = target: Sodium-dependent noradrenaline transporter (Homo sapiens) (UniProt P23975); assay: NE transporter (h) CEREP panel; conditions: Compound concentration 1.0 uM
[27] = target: Tyrosine-protein kinase Fer (Homo sapiens) (UniProt P16591); assay: Fer(h) Millipore kinase panel; conditions: Compound concentration 10.0 uM
[28] = target: Adrenergic receptor alpha-1 (Homo sapiens) (UniProt P35348+P25100+P35368); assay: alpha 1 (non-selective) CEREP panel; conditions: Compound concentration 1.0 uM
[29] = target: 5-hydroxytryptamine receptor 3A (Homo sapiens) (UniProt P46098); assay: 5-HT3 (h) CEREP panel; conditions: Compound concentration 1.0 uM
[30] = target: Serine/threonine-protein kinase Chk2 (Homo sapiens) (UniProt O96017); assay: CHK2(h) Millipore kinase panel; conditions: Compound concentration 10.0 uM
[31] = target: cGMP-dependent protein kinase 1 (Homo sapiens) (UniProt Q13976); assay: PKG1α(h) Millipore kinase panel; conditions: Compound concentration 10.0 uM
[32] = target: Melanocortin receptor 4 (Homo sapiens) (UniProt P32245); assay: MC4 (h) CEREP panel; conditions: Compound concentration 1.0 uM
[33] = target: Discoidin domain-containing receptor 2 (Homo sapiens) (UniProt Q16832); assay: DDR2(h) Millipore kinase panel; conditions: Compound concentration 10.0 uM
[34] = target: Epidermal growth factor receptor (Homo sapiens) (UniProt P00533); assay: EGFR(h) Millipore kinase panel; conditions: Compound concentration 10.0 uM
[35] = target: Muscarinic acetylcholine receptor M1 (Homo sapiens) (UniProt P11229); assay: M1 (h) CEREP panel; conditions: Compound concentration 1.0 uM
[36] = target: Adenosine receptor A2a (Homo sapiens) (UniProt P29274); assay: A2A (h) CEREP panel; conditions: Compound concentration 1.0 uM
[37] = target: Adrenergic receptor alpha-2 (Homo sapiens) (UniProt P08913+P18825+P18089); assay: alpha 2 (non-selective) CEREP panel; conditions: Compound concentration 1.0 uM
[38] = Ca2+ channel CEREP panel; conditions: Compound concentration 1.0 uM
[39] = target: Ribosomal protein S6 kinase alpha-5 (Homo sapiens) (UniProt O75582); assay: MSK1(h) Millipore kinase panel; conditions: Compound concentration 10.0 uM
[40] = target: Calcium/calmodulin-dependent protein kinase type 1 (Homo sapiens) (UniProt Q14012); assay: CaMKI(h) Millipore kinase panel; conditions: Compound concentration 10.0 uM
[41] = target: Serine/threonine-protein kinase DCLK2 (Homo sapiens) (UniProt Q8N568); assay: DCAMKL2(h) Millipore kinase panel; conditions: Compound concentration 10.0 uM
[42] = target: Ribosomal protein S6 kinase beta-1 (Homo sapiens) (UniProt P23443); assay: p70S6K(h) Millipore kinase panel; conditions: Compound concentration 10.0 uM
[43] = target: Serine/threonine-protein kinase PLK3 (Homo sapiens) (UniProt Q9H4B4); assay: Plk3(h) Millipore kinase panel; conditions: Compound concentration 10.0 uM
[44] = target: Mu-type opioid receptor (Homo sapiens) (UniProt P35372); assay: mu (h) CEREP panel; conditions: Compound concentration 1.0 uM
[45] = target: 5-hydroxytryptamine receptor 5A (Homo sapiens) (UniProt P47898); assay: 5-HT5A (h) (5-ht5a) CEREP panel; conditions: Compound concentration 1.0 uM
[46] = target: Galanin receptor type 2 (Homo sapiens) (UniProt O43603); assay: GAL2 (h) CEREP panel; conditions: Compound concentration 1.0 uM
[47] = target: LIM domain kinase 1 (Homo sapiens) (UniProt P53667); assay: LIMK1(h) Millipore kinase panel; conditions: Compound concentration 10.0 uM
[48] = target: D(2) dopamine receptor (Homo sapiens) (UniProt P14416); assay: D2 (h) CEREP panel; conditions: Compound concentration 1.0 uM
[49] = target: Beta-1 adrenergic receptor (Homo sapiens) (UniProt P08588); assay: beta 1 (h) CEREP panel; conditions: Compound concentration 1.0 uM
[50] = target: Tyrosine-protein kinase BTK (Homo sapiens) (UniProt Q06187); assay: BTK(h) Millipore kinase panel; conditions: Compound concentration 10.0 uM

Sequence of Kappa-type opioid receptor (Homo sapiens) (P41145 whole entry): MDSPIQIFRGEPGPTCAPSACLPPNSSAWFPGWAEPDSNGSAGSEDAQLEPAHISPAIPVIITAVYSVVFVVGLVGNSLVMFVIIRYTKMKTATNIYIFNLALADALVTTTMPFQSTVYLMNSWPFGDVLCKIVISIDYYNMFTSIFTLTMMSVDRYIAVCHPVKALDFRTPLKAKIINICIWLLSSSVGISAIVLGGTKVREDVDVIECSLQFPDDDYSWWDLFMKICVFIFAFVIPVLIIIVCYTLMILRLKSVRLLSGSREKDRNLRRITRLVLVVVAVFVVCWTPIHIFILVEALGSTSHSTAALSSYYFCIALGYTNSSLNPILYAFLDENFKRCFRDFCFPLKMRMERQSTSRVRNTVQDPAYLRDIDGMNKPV
Sequence of Serine/threonine-protein kinase D2 (Homo sapiens) (Q9BZL6 whole entry): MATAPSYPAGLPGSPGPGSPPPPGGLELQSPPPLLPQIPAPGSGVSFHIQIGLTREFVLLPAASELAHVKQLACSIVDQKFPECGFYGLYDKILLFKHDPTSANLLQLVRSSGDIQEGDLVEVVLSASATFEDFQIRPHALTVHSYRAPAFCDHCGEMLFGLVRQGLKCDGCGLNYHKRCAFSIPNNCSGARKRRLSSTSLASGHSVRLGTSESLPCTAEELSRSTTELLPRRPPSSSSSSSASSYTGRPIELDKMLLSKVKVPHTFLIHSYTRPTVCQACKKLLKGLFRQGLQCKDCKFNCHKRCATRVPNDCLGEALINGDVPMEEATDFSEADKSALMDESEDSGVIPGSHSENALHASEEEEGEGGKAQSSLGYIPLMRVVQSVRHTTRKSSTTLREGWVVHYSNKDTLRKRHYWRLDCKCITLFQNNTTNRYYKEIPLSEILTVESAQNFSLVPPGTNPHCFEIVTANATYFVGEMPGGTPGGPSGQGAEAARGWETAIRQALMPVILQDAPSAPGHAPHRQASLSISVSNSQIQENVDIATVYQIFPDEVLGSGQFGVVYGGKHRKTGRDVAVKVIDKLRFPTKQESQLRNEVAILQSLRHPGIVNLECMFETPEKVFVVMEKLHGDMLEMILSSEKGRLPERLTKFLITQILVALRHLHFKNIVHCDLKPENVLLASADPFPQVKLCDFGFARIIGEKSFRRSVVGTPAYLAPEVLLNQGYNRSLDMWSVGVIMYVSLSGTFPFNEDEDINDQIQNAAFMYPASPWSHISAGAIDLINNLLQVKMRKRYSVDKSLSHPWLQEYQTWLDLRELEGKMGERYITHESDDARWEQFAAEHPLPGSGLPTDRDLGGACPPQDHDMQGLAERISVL
Sequence of Serine/threonine-protein kinase VRK2 (Homo sapiens) (Q86Y07 whole entry): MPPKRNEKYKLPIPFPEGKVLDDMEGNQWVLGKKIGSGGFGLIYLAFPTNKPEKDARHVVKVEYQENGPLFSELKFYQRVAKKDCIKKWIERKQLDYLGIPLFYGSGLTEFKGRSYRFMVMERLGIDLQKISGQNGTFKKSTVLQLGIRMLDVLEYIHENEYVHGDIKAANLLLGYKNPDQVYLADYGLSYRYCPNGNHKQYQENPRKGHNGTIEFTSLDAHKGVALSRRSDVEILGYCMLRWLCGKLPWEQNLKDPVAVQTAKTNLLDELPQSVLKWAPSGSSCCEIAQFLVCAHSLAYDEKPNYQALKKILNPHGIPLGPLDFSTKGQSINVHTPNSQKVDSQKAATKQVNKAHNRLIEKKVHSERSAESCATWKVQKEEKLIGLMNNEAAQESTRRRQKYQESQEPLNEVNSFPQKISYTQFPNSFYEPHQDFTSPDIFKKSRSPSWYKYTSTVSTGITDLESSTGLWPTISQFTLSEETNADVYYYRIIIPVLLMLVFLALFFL
Sequence of 5-hydroxytryptamine receptor 5A (Homo sapiens) (P47898 whole entry): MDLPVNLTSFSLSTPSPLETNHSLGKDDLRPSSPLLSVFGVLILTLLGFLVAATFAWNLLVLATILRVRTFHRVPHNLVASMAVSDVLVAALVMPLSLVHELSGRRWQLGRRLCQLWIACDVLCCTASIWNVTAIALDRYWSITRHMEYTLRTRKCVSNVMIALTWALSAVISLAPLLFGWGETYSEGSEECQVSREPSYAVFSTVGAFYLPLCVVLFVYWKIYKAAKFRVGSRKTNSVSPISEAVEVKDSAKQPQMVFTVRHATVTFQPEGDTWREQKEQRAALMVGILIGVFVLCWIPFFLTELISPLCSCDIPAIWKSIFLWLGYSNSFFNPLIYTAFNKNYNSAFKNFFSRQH
Sequence of D(2) dopamine receptor (Homo sapiens) (P14416 whole entry): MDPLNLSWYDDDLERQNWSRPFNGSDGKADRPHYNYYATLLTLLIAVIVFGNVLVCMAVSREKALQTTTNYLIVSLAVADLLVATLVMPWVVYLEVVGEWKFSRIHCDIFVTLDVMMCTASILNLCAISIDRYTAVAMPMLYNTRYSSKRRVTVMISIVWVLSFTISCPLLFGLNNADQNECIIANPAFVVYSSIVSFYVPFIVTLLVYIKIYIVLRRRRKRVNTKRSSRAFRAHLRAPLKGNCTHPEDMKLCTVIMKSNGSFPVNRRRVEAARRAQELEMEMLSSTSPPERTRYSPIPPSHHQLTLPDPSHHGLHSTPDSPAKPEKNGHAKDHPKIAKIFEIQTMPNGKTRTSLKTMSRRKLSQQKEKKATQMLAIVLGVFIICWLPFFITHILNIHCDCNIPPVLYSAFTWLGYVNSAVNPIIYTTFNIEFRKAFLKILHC
Sequence of C-C chemokine receptor type 1 (Homo sapiens) (P32246 whole entry): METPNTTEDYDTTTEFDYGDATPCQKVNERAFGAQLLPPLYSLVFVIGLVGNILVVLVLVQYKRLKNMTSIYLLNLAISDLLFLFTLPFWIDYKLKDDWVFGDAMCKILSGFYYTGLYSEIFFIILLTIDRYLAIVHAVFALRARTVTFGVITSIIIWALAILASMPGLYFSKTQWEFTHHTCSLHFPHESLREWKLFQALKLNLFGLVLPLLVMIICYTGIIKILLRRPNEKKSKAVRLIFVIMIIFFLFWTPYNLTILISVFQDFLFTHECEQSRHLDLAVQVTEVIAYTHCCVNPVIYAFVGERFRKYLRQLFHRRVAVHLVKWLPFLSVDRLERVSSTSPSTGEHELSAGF
Sequence of Melanocortin receptor 4 (Homo sapiens) (P32245 whole entry, the tested form may be a part): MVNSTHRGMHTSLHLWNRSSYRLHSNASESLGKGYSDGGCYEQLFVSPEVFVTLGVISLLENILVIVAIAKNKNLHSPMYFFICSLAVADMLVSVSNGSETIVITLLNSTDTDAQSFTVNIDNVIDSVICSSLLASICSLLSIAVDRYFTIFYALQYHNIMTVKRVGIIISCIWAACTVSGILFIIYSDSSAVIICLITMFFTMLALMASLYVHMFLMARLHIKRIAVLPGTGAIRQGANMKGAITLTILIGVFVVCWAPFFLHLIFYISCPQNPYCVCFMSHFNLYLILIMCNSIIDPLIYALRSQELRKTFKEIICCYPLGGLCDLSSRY
Sequence of Tyrosine-protein kinase Fer (Homo sapiens) (P16591 whole entry, looked up): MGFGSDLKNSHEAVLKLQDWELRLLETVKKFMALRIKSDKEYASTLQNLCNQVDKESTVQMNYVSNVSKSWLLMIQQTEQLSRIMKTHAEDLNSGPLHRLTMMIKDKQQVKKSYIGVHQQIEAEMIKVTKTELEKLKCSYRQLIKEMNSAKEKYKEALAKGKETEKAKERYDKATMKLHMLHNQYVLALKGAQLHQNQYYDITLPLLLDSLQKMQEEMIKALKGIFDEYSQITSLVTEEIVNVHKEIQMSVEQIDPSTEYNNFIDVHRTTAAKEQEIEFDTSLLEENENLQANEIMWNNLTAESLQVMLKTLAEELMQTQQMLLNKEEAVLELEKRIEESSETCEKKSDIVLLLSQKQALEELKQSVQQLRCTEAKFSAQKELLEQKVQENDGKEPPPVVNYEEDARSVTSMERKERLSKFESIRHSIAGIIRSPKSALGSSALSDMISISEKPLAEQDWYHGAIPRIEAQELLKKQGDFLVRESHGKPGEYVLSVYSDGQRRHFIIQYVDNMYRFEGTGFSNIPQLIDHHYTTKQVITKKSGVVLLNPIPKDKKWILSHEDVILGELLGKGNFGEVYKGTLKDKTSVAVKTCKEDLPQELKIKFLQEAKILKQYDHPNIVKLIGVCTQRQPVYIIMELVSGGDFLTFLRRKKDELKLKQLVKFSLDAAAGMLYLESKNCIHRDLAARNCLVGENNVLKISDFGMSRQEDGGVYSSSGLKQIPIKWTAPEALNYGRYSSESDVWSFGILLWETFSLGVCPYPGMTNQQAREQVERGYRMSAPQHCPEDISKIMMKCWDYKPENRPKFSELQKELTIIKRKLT
Sequence of Interleukin-1 receptor-associated kinase 4 (Homo sapiens) (Q9NWZ3 whole entry): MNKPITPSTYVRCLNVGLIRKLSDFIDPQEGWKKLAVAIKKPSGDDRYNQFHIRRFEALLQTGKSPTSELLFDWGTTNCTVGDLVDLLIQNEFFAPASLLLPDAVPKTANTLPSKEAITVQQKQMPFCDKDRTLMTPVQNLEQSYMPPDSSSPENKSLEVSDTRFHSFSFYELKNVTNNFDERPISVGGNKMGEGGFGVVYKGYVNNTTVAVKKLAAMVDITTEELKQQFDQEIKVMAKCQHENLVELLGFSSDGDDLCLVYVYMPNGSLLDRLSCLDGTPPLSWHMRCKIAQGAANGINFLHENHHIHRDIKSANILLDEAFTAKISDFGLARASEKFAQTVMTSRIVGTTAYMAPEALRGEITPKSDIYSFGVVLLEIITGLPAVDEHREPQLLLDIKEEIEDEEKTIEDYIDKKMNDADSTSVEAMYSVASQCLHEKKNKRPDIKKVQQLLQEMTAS
Sequence of Neurotensin receptor type 1 (Homo sapiens) (P30989 whole entry): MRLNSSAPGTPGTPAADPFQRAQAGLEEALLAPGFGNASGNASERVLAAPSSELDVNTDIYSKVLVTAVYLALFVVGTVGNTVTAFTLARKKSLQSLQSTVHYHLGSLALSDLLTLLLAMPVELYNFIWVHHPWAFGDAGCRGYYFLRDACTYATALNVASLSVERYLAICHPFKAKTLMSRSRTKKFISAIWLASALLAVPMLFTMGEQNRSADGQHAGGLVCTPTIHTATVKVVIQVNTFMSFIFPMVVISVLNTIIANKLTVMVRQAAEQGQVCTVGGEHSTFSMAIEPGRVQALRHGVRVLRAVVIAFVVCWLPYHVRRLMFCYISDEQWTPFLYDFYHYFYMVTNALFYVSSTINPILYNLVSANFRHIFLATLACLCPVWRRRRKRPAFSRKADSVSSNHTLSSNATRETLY

- inhibition [1]: -9%
- inhibition [2]: < 10%
- inhibition [3]: -5%
- inhibition [4]: -5%
- inhibition [5]: -6%
- inhibition [6]: 9%
- inhibition [7]: < 10%
- inhibition [8]: -4%
- inhibition [9]: < 10%
- inhibition [10]: -5%
- inhibition [11]: 12%
- inhibition [12]: -7%
- inhibition [13]: < 10%
- inhibition [14]: 8%
- inhibition [15]: 4%
- inhibition [16]: 12%
- inhibition [17]: -6%
- inhibition [18]: 18%
- inhibition [19]: 23%
- inhibition [20]: < 10%
- inhibition [21]: -2%
- inhibition [22]: -3%
- inhibition [23]: < 10%
- inhibition [24]: -1%
- inhibition [25]: 0%
- inhibition [26]: 10%
- inhibition [27]: -8%
- inhibition [28]: < 10%
- inhibition [29]: < 10%
- inhibition [30]: 4%
- inhibition [31]: -2%
- inhibition [32]: < 10%
- inhibition [33]: -8%
- inhibition [34]: 2%
- inhibition [35]: 19%
- inhibition [36]: < 10%
- inhibition [37]: 18%
- inhibition [38]: < 10%
- inhibition [39]: 6%
- inhibition [40]: 3%
- inhibition [41]: 1%
- inhibition [42]: 8%
- inhibition [43]: -5%
- inhibition [44]: < 10%
- inhibition [45]: < 10%
- inhibition [46]: < 10%
- inhibition [47]: -10%
- inhibition [48]: < 10%
- inhibition [49]: < 10%
- inhibition [50]: -9%
SMILES: CC(C)c1cc(N2CC[C@@H](N)C2)nc(N)n1

— ChEMBL document CHEMBL5058644, “Data for DCP probe JNJ-39758979” (2022)
